pIC50: −log10 of the molar value. Bridge positions count the residues as written; N and C are the ends. Square brackets hold non-standard residues; d marks the D form. Peptide text beside a SMILES is read from it. * marks the point of attachment. hPhe(3-Cl-4-CF3) = N[C@@H](CCc1ccc(C(F)(F)F)c(Cl)c1)C(=O)O; NMePhe(4-CF3) = CN[C@@H](Cc1ccc(C(F)(F)F)cc1)C(=O)O; NEtPhe(4-Me) = CCN[C@@H](Cc1ccc(C)cc1)C(=O)O; NMePhe(2-F) = CN[C@@H](Cc1ccccc1F)C(=O)O; NMeGly(cPent) = CN[C@H](C(=O)O)C1CCCC1; NMe3Pal = CN[C@@H](Cc1cccnc1)C(=O)O; NMeCha = CN[C@@H](CC1CCCCC1)C(=O)O; NMeAhp(2) = CCCCC[C@H](NC)C(=O)O; NMeI = CC[C@H](C)[C@H](NC)C(=O)O; NMeD = CN[C@@H](CC(=O)O)C(=O)O; NMeL = CN[C@@H](CC(C)C)C(=O)O; NMeV = CN[C@H](C(=O)O)C(C)C; d(β3hA) = C[C@@H](N)CC(=O)O; Azetidin(1-yl) = C1CN(*)C1; NMeS = CN[C@@H](CO)C(=O)O; NMeA = CN[C@@H](C)C(=O)O; Piperidide = C1CCN(*)CC1; Pyrrolidide = C1CCN(*)C1; Ac5c = NC1(C(=O)O)CCCC1; Aze = O=C(O)[C@@H]1CCN1; Isopentyl = CC(C)CC*; Sar = CNCC(=O)O
Tests used:
[1] = system: Human pancreatic cancer cell line AsPC-1 (G12D mutation Kras); assay: AsPC-1 cell growth inhibition (AsPC-1 CGI); type: cell-based; conditions: read-out: AsPC-1 cell growth inhibition, 50% growth inhibitory concentration (IC50 value); 96 hours, CellTiter-Glo, values classified in ranges
Protocol: Test compounds were serially dilated with dimethyl sulfoxide, and 200 nL was then dispensed to a U-bottom 96-well plate using Labcyte Echo. […] The cell suspension was dispensed to a. plate containing a test compound at 100 μL per well and incubated at 37° C. in a 5% carbon dioxide gas incubator. 96 hours later, 80 μL of CellTiter-Glo (Promega) was added to each well and fluorescence was measured.

[2] = target: protein-protein interaction between Kras and SOS1 (biotin-tagged human Kras loaded with GDP, His-tagged human SOS1) (Homo sapiens (Human), UniProt P01116, G12D); assay: Protein-protein interaction inhibition between Kras and SOS1 (KrasG12D-SOS PPI) using AlphaScreen; type: biochemical; conditions: AlphaScreen; biotin-tagged human Kras loaded with GDP, His-tagged human SOS1; read-out: KRAS G12D-SOS PPI IC50;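 note: kras produced in E. coli, Ni-coupled donor beads and streptavidin acceptor beads, excitation 680 nm with emission detected at 520–620 nm via singlet oxygen transfer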

Compound: CC[C@H](C)[C@@H]1NC(=O)[C@H](CC(C)C)N(C)C(=O)C[C@@H](C(=O)N2CCCCC2)N(C)C(=O)[C@H](COC)N(C)C(=O)C2(CCCC2)NC(=O)[C@@H]2CCCN2C(=O)[C@H](CCc2ccc(C(F)(F)F)c(Cl)c2)NC(=O)CN(C)C(=O)[C@H](CC2CCCCC2)N(C)C(=O)[C@@H]2CCN2C(=O)[C@H](C)N(C)C1=O [Compound 484] ([NMeL]I[NMeA][Aze][NMeCha][Sar][hPhe(3-Cl-4-CF3)]P[Ac5c][NMeS](Me)[NMeD]-Piperidide; lactam N-11)
- pIC50 [1]: < 6.30
- pIC50 [2]: 6.96

Compound: CC(C)CCOC[C@@H]1NC(=O)[C@H](CC(C)C)N(C)C(=O)C[C@@H](C(=O)N2CCCCC2)N(C)C(=O)[C@H](C(C)C)N(C)C(=O)C2(CCCC2)NC(=O)[C@@H]2CCCN2C(=O)[C@H](CCc2ccc(C(F)(F)F)c(Cl)c2)NC(=O)CN(C)C(=O)[C@H](CC2CCCCC2)N(C)C(=O)[C@@H]2CCN2C(=O)[C@H](C)N(C)C1=O [Compound 485] ([NMeL]S(Isopentyl)[NMeA][Aze][NMeCha][Sar][hPhe(3-Cl-4-CF3)]P[Ac5c][NMeV][NMeD]-Piperidide; lactam N-11)
- pIC50 [1]: < 6.30
- pIC50 [2]: 6.80

Compound: CC[C@H](C)[C@@H]1NC(=O)[C@H](CC(C)C)N(C)C(=O)C[C@@H](C(=O)N2CCCCC2)N(C)C(=O)[C@H](C(C)C)N(C)C(=O)C2(CCCC2)NC(=O)[C@@H]2CCCN2C(=O)[C@H](CCc2ccc(C(F)(F)F)c(Cl)c2)NC(=O)CN(C)C(=O)[C@H](COC)N(C)C(=O)[C@@H]2CCN2C(=O)[C@H](C)N(C)C1=O [Compound 487] ([NMeL]I[NMeA][Aze][NMeS](Me)[Sar][hPhe(3-Cl-4-CF3)]P[Ac5c][NMeV][NMeD]-Piperidide; lactam N-11)
- pIC50 [1]: < 6.30
- pIC50 [2]: 8.23

Compound: CC[C@H](C)[C@@H]1NC(=O)[C@H](C)N(C)C(=O)C[C@@H](C)NC(=O)[C@H](C2CCCC2)N(C)C(=O)C2(CCCC2)NC(=O)[C@@H]2CCCN2C(=O)[C@H](CCc2ccc(C(F)(F)F)c(Cl)c2)NC(=O)CN(C)C(=O)[C@H](Cc2cccnc2)N(C)C(=O)[C@@H]2CCCN2C(=O)CN(C)C1=O [Compound 489] (cyclo([Ac5c][NMeGly(cPent)][d(β3hA)][NMeA]I[Sar]P[NMe3Pal][Sar][hPhe(3-Cl-4-CF3)]P))
- pIC50 [1]: < 6.30
- pIC50 [2]: 8.09

Compound: CC[C@H](C)[C@@H]1NC(=O)[C@H](C)N(C)C(=O)C[C@@H](C(=O)N2CCCCC2)N(C)C(=O)[C@H](C(C)C)N(C)C(=O)C2(CCCC2)NC(=O)[C@H](Cc2ccccc2F)N(C)C(=O)[C@H](CCc2ccc(C(F)(F)F)c(Cl)c2)NC(=O)CN(C)C(=O)[C@H](CC2CCCCC2)N(C)C(=O)CN(C)C(=O)CN(C)C1=O [Compound 492] ([NMeA]I[Sar][Sar][NMeCha][Sar][hPhe(3-Cl-4-CF3)][NMePhe(2-F)][Ac5c][NMeV][NMeD]-Piperidide; lactam N-11)
- pIC50 [1]: < 6.30
- pIC50 [2]: 7.92

Compound: CC[C@H](C)[C@@H]1NC(=O)[C@H](CC(C)C)N(C)C(=O)C[C@@H](C(=O)N2CCC2)N(C)C(=O)[C@H](C2CCCC2)N(C)C(=O)C2(CCCC2)NC(=O)[C@@H]2CCCN2C(=O)[C@H](CCc2ccc(C(F)(F)F)c(Cl)c2)NC(=O)CN(C)C(=O)[C@H](Cc2ccc(C)cc2)N(CC)C(=O)[C@@H]2CCN2C(=O)[C@H](C)N(C)C1=O [Compound 506] ([NMeL]I[NMeA][Aze][NEtPhe(4-Me)][Sar][hPhe(3-Cl-4-CF3)]P[Ac5c][NMeGly(cPent)][NMeD]-{Azetidin(1-yl)}; lactam N-11)
- pIC50 [1]: ≥ 7.70
- pIC50 [2]: 9.17

Compound: CCCCC[C@H]1C(=O)N[C@@H]([C@@H](C)CC)C(=O)N(C)[C@@H](C)C(=O)N2CC[C@H]2C(=O)N(C)[C@@H](Cc2ccc(C(F)(F)F)cc2)C(=O)N(C)CC(=O)N[C@@H](CCc2ccc(C(F)(F)F)c(Cl)c2)C(=O)N2CCC[C@H]2C(=O)NC2(CCCC2)C(=O)N(C)[C@@H]([C@@H](C)CC)C(=O)N(C)[C@H](C(=O)N2CCCC2)CC(=O)N1C [Compound 509] ([NMeAhp(2)]I[NMeA][Aze][NMePhe(4-CF3)][Sar][hPhe(3-Cl-4-CF3)]P[Ac5c][NMeI][NMeD]-Pyrrolidide; lactam N-11)
- pIC50 [1]: ≥ 7.70
- pIC50 [2]: 8.89

Compound: CC[C@H](C)[C@@H]1NC(=O)[C@H](C)N(C)C(=O)C[C@@H](C(=O)N2CCCCC2)N(C)C(=O)[C@H](C(C)C)N(C)C(=O)C2(CCCC2)NC(=O)[C@H](Cc2cccnc2)N(C)C(=O)[C@H](CCc2ccc(C(F)(F)F)c(Cl)c2)NC(=O)CN(C)C(=O)[C@H](CC2CCCCC2)N(C)C(=O)CN(C)C(=O)CN(C)C1=O [Compound 519] ([NMeA]I[Sar][Sar][NMeCha][Sar][hPhe(3-Cl-4-CF3)][NMe3Pal][Ac5c][NMeV][NMeD]-Piperidide; lactam N-11)
- pIC50 [1]: < 6.30
- pIC50 [2]: 8.70

Source: patent US20240148821A1, “PHARMACEUTICAL USE OF CYCLIC PEPTIDE COMPOUND” (CHUGAI SEIYAKU KABUSHIKI KAISHA, priority 2021, published 2024)
